Consider six molecules from patent US10668174B2, “Organ protection in PSMA-targeted radionuclide therapy of prostate cancer” (Molecular Insight Pharmaceuticals, Inc., priority 2014, dated 2020).

The conditions of data set [1]: PET-based dosimetry; cited from earlier work.
A short description of data set [2]: Example 3: serial 68Ga-MIP-1558 PET of the salivary region with saline or PMPA. It is filed as in vivo. The following applies: rats, PMPA 10 mg/kg. The protocol:
(§1) MIP-1558 was evaluated after labeling with ^68Ga and imaging in an animal PET. […] Both tumor and kidney uptake was determined in a volume of interest (VOI).

For another data set, the system named is LNCaP tumor. The data set can be described thus: Example 3: 68Ga-MIP-1558 animal PET, PMPA after 1 hour baseline scan. The class given is in vivo, BALB/c nude mice. Conditions: for kidney uptake SUVmax of 68Ga-MIP1558: PMPA 50 mg/kg; for mean tumor uptake SUVmax of 68Ga-MIP1558: after PMPA 50 mg/kg. As to the method:
as §1

A further data set has as its system PSMA. The following applies: simultaneous coinjection of 50 mg/kg PMPA; cited from earlier work.
The test system of the next data set is LNCaP tumors. The data set can be described thus: Example 1: planar scintigraphy of 125I-MIP-1095, PMPA injected 16 hours later. The class given is in vivo, BALB/c nude mice. The protocol: Mice bearing LNCaP tumors of 1.5 cm diameter were injected via the tail vein with 37 MBq of ^125I-MIP-1095 in 100 μl at a specific activity of >1,000 mCi/[…]. Mice were imaged at a baseline time of 16 hours post injection giving enough time for tracer clearance from the blood stream and kidney calices.

The conditions of data set [3]: doses of up to 750 mg (~10 mg/kg), 25 healthy subjects, mean body weight 71 kg; cited from earlier work.
Where [4] appears, read: group 2, PMPA 0.5 mg/kg IV 16 hours post tracer.
[5] abbreviates: groups 3, 4 and 5, 0.05, 0.15 and 0.5 mg/kg.

Structures are written as SMILES. Where two headings read alike, the source gives them in different places. Some results are limits rather than exact numbers.

Procedure for LNCaP xenografts: Blood and tissues were collected 18 hours after intravenous injection of ^125I-MIP-1095 (2 hours after displacing agent injections). Gamma-counter readouts were obtained for each sample and expressed as percent injected dose per gram of tissue using gamma-counter readout of the dosing solution as a reference.
The dosing solution was prepared fresh the day of administration.
Cold MIP-1095 was stored protected from light at −80° C. until use. The compound was formulated in a vehicle of sterile saline. For dosing of the 0.50 mg/kg group, the cold MIP-1095 was placed into a sterile vial and the appropriate amount of saline was added and mixed well by vortexing to form a clear solution with a pH value of 6.96. Dosing solutions for the 0.15 mg/kg and 0.05 mg/kg groups were prepared by direct (not serial) dilution of the dosing solution from the 0.5 mg/kg group with complete vehicle. The dosing solutions were prepared fresh the day of administration.
For dosing, the stock solution (colorless) was thawed in a 37° C. water bath and diluted 1:1 with sterile saline for a fixed 0.1 mCi/ml solution for dosing.
The pre-implantation cell viability was 97%. […] The cell suspension was maintained on wet ice during implantation. Following implantation, an aliquot of the remaining cells was diluted with a trypan blue solution and counted to determine the post-implantation cell viability (96%).
Test animals were implanted subcutaneously, high in the axilla (just under the fore limb) on Day 0 with 5.0E+06 cells in 0.2 ml of 50% serum-free medium:50% Matrigel® using a 27-gauge needle and syringe.
All mice were sorted into study groups based on caliper measurement estimation of tumor burden. The mice were distributed to ensure that the mean tumor burden for all groups was within 10% of the overall mean tumor burden for the study population. Treatment began on Day 25. Mice were administered test agent via intravenous injections. The mice were administered a fixed volume injection of 100 μl (approximately 4 ml/kg) via the tail vein, using a 28-gauge needle and insulin syringe. A fresh needle and syringe was used for each mouse.
Group 1—^125I-MIP-1095+Saline, 0.4 mCi/kg (0.005 mg/kg)+100 μl fixed volume, IV+IV, “Control”; test article at 0 hours, saline 16 hours post test article.

As for `O=C(O)CC[C@H](NC(=O)N[C@@H](CCCCNC(=O)Nc1ccc([123I])cc1)C(=O)O)C(=O)O` [124I-MIP1095], in [1], the “off-target radiation dose, kidneys” value is 1.4 mSv/MBq; the “off-target radiation dose, liver” value was 1.7 mSv/MBq; the “off-target radiation dose, salivary glands” value is on record as 3.8 mSv/MBq; the “radiation dose, red marrow” value is given as 0.37 mSv/MBq.
As to `O=C(O)CC[C@H](NC(=O)N[C@@H](CCC(=O)N[C@@H](CCCCN(Cc1nccn1CC(=O)N(CC(=O)O)CC(=O)O)Cc1nccn1CC(=O)N(CC(=O)O)CC(=O)O)C(=O)O)C(=O)O)C(=O)O` [MIP-1404], the “washout from the kidneys without intervention” value in the data set on LNCaP (mouse, in vivo) is recorded as “fast washout”.
Take `O=C(O)CCC(CP(=O)(O)O)C(=O)O` (stereo not drawn) [PMPA, 2-(phosphonomethyl)pentanedioic acid]: in the data set on LNCaP (PMPA 50 mg/kg), the “difference in MIP-1404 tumor uptake vs controls” value was “not significant”. For the same molecule, the “washout of MIP-1404 from kidney vs controls” value in the data set with LNCaP (PMPA 50 mg/kg after baseline scan, at 2 and 4 hours) is “significantly (p<0.01) enhanced”. Moreover, the “change of salivary region uptake due to the PMPA intervention” value in [2] is given as “there does not appear to be a measurable change”. Besides, the “salivary region SUVmax of 68Ga-MIP-1558, mean” value in data set [2] (1 hour post injection) was found to be 0.82; in data set [2] (3 hours post injection) it was 0.23. The “residual kidney uptake of MIP-1404, % of baseline” value reads like this: (PMPA 1 mg/kg, 2 hours) 13%; (PMPA 1 mg/kg, 4 hours) 9%; (PMPA 10 mg/kg, 2 hours) 15%; (PMPA 10 mg/kg, 4 hours) 10%; (PMPA 50 mg/kg, 2 hours) 11%; (PMPA 50 mg/kg, 4 hours) 7%. Further, the entries for the “kidney uptake SUVmax of 68Ga-MIP1558” value in the data set on LNCaP tumor (2 hours post injection) and in the data set on LNCaP tumor (3 hours post injection) were 1.87 and 1.77, respectively. The results for the “mean tumor uptake SUVmax of 68Ga-MIP1558” value in the data set on LNCaP tumor (2 hours post injection) and with LNCaP tumor (3 hours post injection) were 0.40 and 0.39, respectively. Besides, the “exposure of 125I-MIP-1095 in LNCaP tumors and all other organs and tissues” value in the data set on LNCaP xenografts (setting [4]) is recorded as “little changed”. For the same molecule, in the data set with LNCaP xenografts (setting [4]), the “exposure of 125I-MIP-1095 in the kidneys” value was “greatly reduced”. In the data set with PSMA, the “blocking of radiolabeled MIP-1095 binding sites in tumor and kidneys” value was “complete blocking”. Moreover, the “residual tumor uptake of 125I-MIP-1095, % of 16 hour baseline” value in the data set with LNCaP tumors (2 hours after PMPA 0.2 mg/kg) was 98%; in the data set on LNCaP tumors (2 hours after PMPA 1 mg/kg) it was 93%; with LNCaP tumors (2 hours after PMPA 10 mg/kg), 77%; in the data set with LNCaP tumors (2 hours after PMPA 50 mg/kg), 75%. Further, the “decrease in tumor uptake” value with LNCaP tumors (PMPA 0.2 mg/kg) is below 5%. Also, the “renal displacement of tracer” value is on record as “only sub-totally displaced” with LNCaP tumors (PMPA 0.2 mg/kg (lower dose)) and “near total renal displacement” in the data set with LNCaP tumors (PMPA 1.0 mg/kg). Moreover, in the data set on LNCaP tumors (PMPA 0.2 mg/kg, 16 hours after tracer), the “displacement of 125I-MIP-1095 from the kidneys” value is given as “high significant (p<0.01) displacement”. Besides, in the data set with LNCaP tumors (PMPA 1.0 mg/kg), the “effect on tumor uptake” value is on record as below 10%. Moreover, the “kidney washout of 125I-MIP-1095 vs 0.2 mg/kg dose” value in the data set on LNCaP tumors (PMPA 1 mg/kg, p<0.01) is listed as “even higher kidney washout”. In addition, in the data set on LNCaP tumors (PMPA 16 hours after MIP-1095, all PMPA doses (0.2-50 mg/kg)), the “displacement of renal activity of 125I-MIP-1095” value is “rapid and quantitative relevant displacement”. The “kidney-protective effect vs 1 mg/kg” value in the data set with LNCaP tumors (PMPA doses greater than 1 mg/kg (10, 50 mg/kg)) is on record as “did not improve the kidney-protective effect”.
`O=C(O)CC[C@H](NC(=O)N[C@@H](CCCCNC(=O)Nc1ccc([123I])cc1)C(=O)O)C(=O)O` [125I-MIP-1095]: in the data set on LNCaP xenografts (male, Taconic Nude (CrTac:NCr-Foxn1nu), mouse, in vivo, 18 h), the “exposure in all other tissues and organs (including salivary glands)” value is on record as “less than 1 % of ID/g”. The “exposure in LNCaP tumors relative to other tissues” value with LNCaP xenografts (mouse, in vivo, iv) is recorded as “highest exposure”.
As for `O=C(O)CC[C@H](NC(=O)N[C@@H](CCCCNC(=O)Nc1ccc(I)cc1)C(=O)O)C(=O)O` [cold MIP-1095], in the data set on LNCaP xenografts (group 4 (0.15 mg/kg)), the “exposure in other organs” value is “little changed”, the “reduction of LNCaP tumors exposure compared to negative control” value worked out at 1.2 fold and the “reduction of kidney exposure compared to negative control” value was determined as 5 fold. Further, in the data set on LNCaP xenografts (setting [5]), the 125I-MIP-1095 kidney exposure entry is “dose-dependently reduced”; the LNCaP tumors exposure entry is recorded as “dose-dependent decrease”; the “liver, stomach, large and small intestines exposure” value is reported as “dose-dependent increase”. The “reduction in kidney exposure compared with positive control” value with LNCaP xenografts (highest dose (0.5 mg/kg)) is recorded as “equivalent to the one observed for positive control”.
`O=C(O)CCC(CCCS)C(=O)O` (stereo not drawn) [2-MPPA, 2-(3-mercaptopropyl)pentanedioic acid]: the safety and tolerability result in data set [3] was “safe and generally well tolerated”.
